Measurements taken from patent US20150141381A1, “TETRACYCLINE COMPOUNDS HAVING TARGET THERAPEUTIC ACTIVITIES” (Paratek Pharmaceuticals, Inc., priority 2001, published 2015).
Where two headings read alike, the source gives them in different places.

Key:
S. aureus RN450 = experiment: In Vitro Anti-Bacterial Activity Assay (MIC), gram positive; type: cell-based; conditions: for MIC: Staphylococcus aureus, RN450, 18 h
E. coli mL308 225 = experiment: In Vitro Anti-Bacterial Activity Assay (MIC), gram negative; type: cell-based; conditions: for MIC: Escherichia coli, ML308225, 18 h
[1] = gram positive bacteria, read-out: Antibiotic Activity Gram + (MIC)
[2] = gram negative bacteria, read-out: Antibiotic Activity Gram − (MIC)
[3] = MIC class, Table 3 (Continued), read-out: Gram+ activity
[4] = MIC class, Table 3 (Continued), read-out: Gram− activity
[5] = MIC class, Table 3, read-out: Antibiotic Activity Gram +
[6] = MIC class, Table 3, read-out: Antibiotic Activity Gram −

| SMILES | MIC (S. aureus RN450; [1]) [µg/mL] | MIC (E. coli mL308 225; [2]) [µg/mL] | further results |
| --- | --- | --- | --- |
| Cc1ccnc(-c2ccc(O)c3c2C[C@H]2C[C@H]4[C@H](N(C)C)C(O)=C(C(N)=O)C(=O)[C@@]4(O)C(O)=C2C3=O)c1 | < 4 | < 4 |  |
| COc1ccc(C#Cc2ccc(O)c3c2C[C@H]2C[C@H]4[C@H](N(C)C)C(O)=C(C(N)=O)C(=O)[C@@]4(O)C(O)=C2C3=O)cc1 |  |  | MIC (S. aureus RN450; [3]): < 4 µg/mL; MIC (E. coli mL308 225; [4]): < 4 µg/mL |
| CN(C)[C@@H]1C(O)=C(C(N)=O)C(=O)[C@@]2(O)C(O)=C3C(=O)c4c(O)ccc(CNC(=O)c5cc(O)ncn5)c4C[C@H]3C[C@@H]12 | < 4 | > 4 |  |
| CC(=O)/C=C/c1ccc(O)c2c1C[C@H]1C[C@H]3[C@H](N(C)C)C(O)=C(C(N)=O)C(=O)[C@@]3(O)C(O)=C1C2=O | < 4 | > 4 |  |
| COc1cccc(C#Cc2cc(N(C)C)c3c(c2O)C(=O)C2=C(O)[C@]4(O)C(=O)C(C(N)=O)=C(O)[C@@H](N(C)C)[C@@H]4C[C@@H]2C3)c1 | < 4 | < 4 |  |
| CCC(NCc1cc(N(C)C)c2c(c1O)C(=O)C1=C(O)[C@]3(O)C(=O)C(C(N)=O)=C(O)C(N(C)C)[C@@H]3C[C@@H]1C2)C(F)(F)F (some centres unmarked) [NT] |  |  | MIC (S. aureus RN450; [5]): < 4 µg/mL; MIC (E. coli mL308 225; [6]): > 4 µg/mL |
| CCc1cc(CN2CCC(F)(F)CC2)c(O)c2c1C[C@H]1C[C@H]3[C@H](N(C)C)C(O)=C(C(N)=O)C(=O)[C@@]3(O)C(O)=C1C2=O [drawing 3696] |  |  | Antibiotic Activity Gram + (MIC) (S. aureus RN450; gram positive bacteria): ** (compounds with MIC less than or equal to 4 μg/ml are indicated with **); Antibiotic Activity Gram − (MIC) (E. coli mL308 225; gram negative bacteria): ** (compounds with MIC less than or equal to 4 μg/ml are indicated with **) |
| CN(C)[C@@H]1C(O)=C(C(N)=O)C(=O)[C@@]2(O)C(O)=C3C(=O)c4c(O)c(C(C)(C)C)cc(-c5ccc6c(c5)OCO6)c4C[C@H]3C[C@@H]12 | > 4 | > 4 |  |
| COC(=O)CCc1cccc(-c2ccc(O)c3c2C[C@H]2C[C@H]4[C@H](N(C)C)C(O)=C(C(N)=O)C(=O)[C@@]4(O)C(O)=C2C3=O)c1 | < 4 | > 4 |  |
| CCOCc1cccc(-c2ccc(O)c3c2C[C@H]2C[C@H]4[C@H](N(C)C)C(O)=C(C(N)=O)C(=O)[C@@]4(O)C(O)=C2C3=O)c1 |  |  | MIC (S. aureus RN450; [3]): < 4 µg/mL; MIC (E. coli mL308 225; [4]): < 4 µg/mL |
| COc1ccc(CNCC(F)(F)F)cc1-c1ccc(O)c2c1C[C@H]1C[C@H]3C(N(C)C)C(O)=C(C(N)=O)C(=O)[C@@]3(O)C(O)=C1C2=O (some centres unmarked) [NQ] |  |  | MIC (S. aureus RN450; [5]): < 4 µg/mL; MIC (E. coli mL308 225; [6]): > 4 µg/mL |
| CN(C)[C@@H]1C(O)=C(C(N)=O)C(=O)[C@@]2(O)C(O)=C3C(=O)c4c(O)ccc(C(=O)O)c4C[C@H]3C[C@@H]12 | > 4 | > 4 |  |
| COC(=O)/C=C/c1ccc(O)c2c1C[C@H]1C[C@H]3[C@H](N(C)C)C(O)=C(C(N)=O)C(=O)[C@@]3(O)C(O)=C1C2=O [NJ] |  |  | MIC (S. aureus RN450; [5]): < 4 µg/mL; MIC (E. coli mL308 225; [6]): > 4 µg/mL |
| CN(C)[C@@H]1C(O)=C(C(N)=O)C(=O)[C@@]2(O)C(O)=C3C(=O)c4c(O)ccc(CNC(=O)c5cnoc5)c4C[C@H]3C[C@@H]12 | < 4 | > 4 |  |
| CN(C)c1cc(CNCC(C)(C)C)c(O)c2c1C[C@H]1C[C@H]3[C@H](N(C)C)C(O)=C(C(N)=O)C(=O)[C@@]3(O)C(O)=C1C2=O [FD] |  |  | MIC (S. aureus RN450; [5]): < 4 µg/mL; MIC (E. coli mL308 225; [6]): < 4 µg/mL |
| COc1ccc(OC)c(-c2ccc(O)c3c2C[C@H]2C[C@H]4[C@H](N(C)C)C(O)=C(C(N)=O)C(=O)[C@@]4(O)C(O)=C2C3=O)c1 |  |  | MIC (S. aureus RN450; [3]): < 4 µg/mL; MIC (E. coli mL308 225; [4]): < 4 µg/mL |
| CCOc1ccc(-c2ccc(O)c3c2C[C@H]2C[C@H]4[C@H](N(C)C)C(O)=C(C(N)=O)C(=O)[C@@]4(O)C(O)=C2C3=O)cc1CN [GJ] |  |  | MIC (S. aureus RN450; [5]): < 4 µg/mL; MIC (E. coli mL308 225; [6]): < 4 µg/mL |
| CC(=O)O[C@H]1[C@H]2C(=C(O)[C@]3(O)C(=O)C(C(N)=O)=C(O)[C@@H](N(C)C)[C@H]13)C(=O)c1c(ccc(CN3CCC(C(F)(F)F)CC3)c1O)[C@@H]2C | < 4 | < 4 |  |
| CN(C)c1ccc(-c2cc(I)c(O)c3c2C[C@H]2C[C@H]4[C@H](N(C)C)C(O)=C(C(N)=O)C(=O)[C@@]4(O)C(O)=C2C3=O)cc1 | < 4 | > 4 |  |
| CNCC#Cc1ccc(O)c2c1C[C@H]1C[C@H]3[C@H](N(C)C)C(O)=C(C(N)=O)C(=O)[C@@]3(O)C(O)=C1C2=O [KR] |  |  | MIC (S. aureus RN450; [5]): < 4 µg/mL; MIC (E. coli mL308 225; [6]): < 4 µg/mL |
| CN(C)[C@@H]1C(O)=C(C(N)=O)C(=O)[C@@]2(O)C(O)=C3C(=O)c4c(O)ccc(Cl)c4C[C@H]3C[C@@H]12 | < 4 | < 4 |  |
| CN(C)c1cc(NC(=O)Oc2ccccc2)c(O)c2c1C[C@H]1C[C@H]3[C@H](N(C)C)C(O)=C(C(N)=O)C(=O)[C@@]3(O)C(O)=C1C2=O [DT] |  |  | MIC (S. aureus RN450; read-out: Antibiotic Activity Gram +): > 4 µg/mL; MIC (E. coli mL308 225; read-out: Antibiotic Activity Gram −): > 4 µg/mL |
